# Experimental data taken from US20230002375A1, “HYDROPYRAZINO[1,2-B]ISOQUINOLINE COMPOUNDS FOR THE TREATMENT OF AUTOIMMUNE DISEASE” (Hoffmann-La Roche Inc., priority 2019, published 2023).
# Target: T1, human TLR8 (Homo sapiens, UniProt Q9NR97)
# T1 sequence (Q9NR97 27-1041): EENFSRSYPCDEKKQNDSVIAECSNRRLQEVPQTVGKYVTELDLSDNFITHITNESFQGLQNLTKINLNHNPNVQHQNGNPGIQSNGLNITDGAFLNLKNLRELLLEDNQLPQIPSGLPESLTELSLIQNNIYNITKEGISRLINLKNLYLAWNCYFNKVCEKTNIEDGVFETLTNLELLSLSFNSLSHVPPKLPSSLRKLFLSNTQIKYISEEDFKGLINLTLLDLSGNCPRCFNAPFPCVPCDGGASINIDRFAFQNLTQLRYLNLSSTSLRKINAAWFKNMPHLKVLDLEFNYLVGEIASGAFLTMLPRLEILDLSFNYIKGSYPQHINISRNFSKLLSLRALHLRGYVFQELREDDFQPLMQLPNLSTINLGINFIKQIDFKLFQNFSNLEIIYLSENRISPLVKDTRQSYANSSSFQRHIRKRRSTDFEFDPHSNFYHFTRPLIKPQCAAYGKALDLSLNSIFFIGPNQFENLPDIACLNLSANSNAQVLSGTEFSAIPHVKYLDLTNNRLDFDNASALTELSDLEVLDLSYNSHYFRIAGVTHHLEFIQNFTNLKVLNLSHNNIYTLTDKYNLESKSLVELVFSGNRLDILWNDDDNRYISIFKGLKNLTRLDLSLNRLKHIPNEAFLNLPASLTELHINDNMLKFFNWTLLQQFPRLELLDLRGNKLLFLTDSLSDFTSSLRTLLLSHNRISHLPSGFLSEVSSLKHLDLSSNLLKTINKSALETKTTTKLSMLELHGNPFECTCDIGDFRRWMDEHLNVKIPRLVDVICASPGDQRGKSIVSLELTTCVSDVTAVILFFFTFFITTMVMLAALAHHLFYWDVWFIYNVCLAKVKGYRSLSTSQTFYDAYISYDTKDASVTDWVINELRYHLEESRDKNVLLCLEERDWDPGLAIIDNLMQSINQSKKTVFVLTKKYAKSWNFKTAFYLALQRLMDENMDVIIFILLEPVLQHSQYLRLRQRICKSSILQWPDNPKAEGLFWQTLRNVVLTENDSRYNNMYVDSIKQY
# Assay: HEK293-Blue-hTLR-8 cells assay (SEAP reporter, R848 stimulation)
# Format: cell-based
# Details: HEK293-Blue-hTLR8 cells, R848, 20 hrs incubation; read-out: HEK/hTLR8 IC50
# Description: The following tests were carried out in order to determine the activity of the compounds of formula (I), (Ia) or (Ib) in HEK293-Blue-hTLR-7/8/9 cells assay.
# HEK293-Blue-hTLR-8 Cells Assay:
# A stable HEK293-Blue-hTLR-8 cell line was purchased from InvivoGen (Cat.#: hkb-htlr8, San Diego, Calif., USA). These cells were originally designed for studying the stimulation of human TLR8 by monitoring the activation of NF-κB. A SEAP (secreted embryonic alkaline phosphatase) reporter gene was placed under the control of the IFN-β minimal promoter fused to five NF-κB and AP-1-binding sites. The SEAP was induced by activating NF-κB and AP-1 via stimulating HEK-Blue hTLR8 cells with TLR8 ligands. Therefore the reporter expression was declined by TLR8 antagonist under the stimulation of a ligand, such as R848, for incubation of 20 hrs. The cell culture supernatant SEAP reporter activity was determined using QUANTI-Blue™ kit (Cat.#: rep-qb1, Invivogen, San Diego, Ca, USA) at a wavelength of 640 nm, a detection medium that turns purple or blue in the presence of alkaline phosphatase.
# HEK293-Blue-hTLR8 cells were incubated at a density of 250,000-450,000 cells/mL in a volume of 170 μL in a 96-well plate in Dulbecco's Modified Eagle's medium (DMEM) containing 4.5 g/L glucose, 50 U/mL penicillin, […], […], 2 mM L-glutamine, 10% (v/v) heat-inactivated fetal bovine serum with addition of 20 μL test compound in a serial dilution in the presence of final DMSO at 1% and 10 μL of 60 uM R848 in above DMEM, perform incubation under 37° C. in a CO2 incubator for 20 hrs. Then 20 μL of the supernatant from each well was incubated with 180 μL Quanti-blue substrate solution at 37° C. for 2 hrs and the absorbance was read at 620˜655 nm using a spectrophotometer. The signaling pathway that TLR8 activation leads to downstream NF-κB activation has been widely accepted, and therefore similar reporter assay was modified for evaluating TLR8 antagonist.
row,IC50 [nM],Compound
1,8,"C[C@@H]1CN(c2ccc(C#N)c3ncccc23)C[C@@H]2Cc3cc(N4C[C@@H]5CNCCN5C4=O)ccc3CN21 (single isomer, unassigned) [Example 17A]"
2,2.4,"C[C@@H]1CN(c2ccc(C#N)c3ncccc23)C[C@@H]2Cc3cc(N4C[C@H]5CNCCN5C4=O)ccc3CN21 (single isomer, unassigned) [Example 17B]"
3,37.5,"C[C@@H]1CN(c2ccc(C#N)c3ncccc23)C[C@@H]2Cc3cc(N4CCN(C(=O)C(C)(C)N)CC4)ccc3CN21 [Example 13, 5-[(4R,11aS)-9-[4-(2-amino-2-methyl-propanoyl)piperazin-1-yl]-4-methyl-1,3,4,6,11,11a-hexahydropyrazino[1,2-b]isoquinolin-2-yl]quinoline-8-carbonitrile]"
4,1.4,"C[C@@H]1CN(c2ccc(C#N)c3ncccc23)C[C@@H]2Cc3cc(N4CCN(C(=O)[C@]5(C)CCCN5)CC4)ccc3CN21 [Example 14, 5-[(4R,11aS)-4-methyl-9-[4-[(2S)-2-methylpyrrolidine-2-carbonyl]piperazin-1-yl]-1,3,4,6,11,11a-hexahydropyrazino[1,2-b]isoquinolin-2-yl]quinoline-8-carbonitrile]"
5,4.7,"C[C@@H]1CN(c2ccc(C#N)c3ncccc23)C[C@@H]2Cc3cc(N4C[C@@H]5C[C@H]4CN5C(=O)C(C)(C)N)ccc3CN21 [Example 15, 5-[(4R,11aS)-9-[(1S,4S)-5-(2-amino-2-methyl-propanoyl)-2,5-diazabicyclo[2.2.1]heptan-2-yl]-4-methyl-1,3,4,6,11,11a-hexahydropyrazino[1,2-b]isoquinolin-2-yl]quinoline-8-carbonitrile]"
6,5.3,"C[C@@H]1CN(c2ccc(C#N)c3ncccc23)C[C@@H]2Cc3cc(N4CC(N)CC4=O)ccc3CN21 (stereo partly drawn) [Example 16, 5-[(4R,11aS)-9-(4-amino-2-oxo-pyrrolidin-1-yl)-4-methyl-1,3,4,6,11,11a-hexahydropyrazino[1,2-b]isoquinolin-2-yl]quinoline-8-carbonitrile]"
7,14.5,"C[C@@H]1CN(c2ccc(C#N)c3ncccc23)C[C@@H]2Cc3cc(N4CC5CCNCC5C4=O)ccc3CN21 (stereo partly drawn) [Example 18, 5-[(4R,11aS)-4-methyl-9-(3-oxo-3a,4,5,6,7,7a-hexahydro-1H-pyrrolo[3,4-c]pyridin-2-yl)-1,3,4,6,11,11a-hexahydropyrazino[1,2-b]isoquinolin-2-yl]quinoline-8-carbonitrile]"
8,4.2,"C[C@@H]1CN(c2ccc(C#N)c3ncccc23)C[C@@H]2Cc3cc(N4CC5CNCCC5C4=O)ccc3CN21 (stereo partly drawn) [Example 19, 5-[(4R,11aS)-4-methyl-9-(1-oxo-3a,4,5,6,7,7a-hexahydro-3H-pyrrolo[3,4-c]pyridin-2-yl)-1,3,4,6,11,11a-hexahydropyrazino[1,2-b]isoquinolin-2-yl]quinoline-8-carbonitrile]"

# The next lines start with the compound.
row,Compound,IC50 [nM]
1,"C[C@@H]1CN(c2ccc(C#N)c3ncccc23)C[C@@H]2Cc3cc(N4CC5NCCOC5C4)ccc3CN21 (stereo in doubt) [Example 10, 5-[(4R,11aS)-9-[(4aS,7aS)-3,4,4a,5,7,7a-hexahydro-2H-pyrrolo[3,4-b][1,4]oxazin-6-yl]-4-methyl-1,3,4,6,11,11a-hexahydropyrazino[1,2-b]isoquinolin-2-yl]quinoline-8-carbonitrile]",1.5
2,"C[C@@H]1CN(c2ccc(C#N)c3ncccc23)C[C@@H]2Cc3ccc(N4CCOCC(N)C4)cc3CN21 (stereo partly drawn) [Example 1, 5-[(4R,11aS)-8-(6-amino-1,4-oxazepan-4-yl)-4-methyl-1,3,4,6,11,11a-hexahydropyrazino[1,2-b]isoquinolin-2-yl]quinoline-8-carbonitrile]",14.5
3,"C[C@@H]1CN(c2ccc(C#N)c3ncccc23)C[C@@H]2Cc3ccc(NCCN4CC[C@H](O)C4)cc3CN21 [Example 2, 5-[(4R,11aS)-8-[2-[(3S)-3-hydroxypyrrolidin-1-yl]ethylamino]-4-methyl-1,3,4,6,11,11a-hexahydropyrazino[1,2-b]isoquinolin-2-yl]quinoline-8-carbonitrile]",4.2
4,"C[C@@H]1CN(c2ccc(C#N)c3ncccc23)C[C@@H]2Cc3ccc(OCCN(C)C)cc3CN21 [Example 5, 5-[(4R,11aS)-8-[2-(dimethylamino)ethoxy]-4-methyl-1,3,4,6,11,11a-hexahydropyrazino[1,2-b]isoquinolin-2-yl]quinoline-8-carbonitrile]",9.2
5,"C[C@@H]1CN(c2ccc(C#N)c3ncccc23)C[C@@H]2Cc3cc(N[C@@H]4CNC[C@@H]4F)ccc3CN21 [Example 6, 5-[(4R,11aS)-4-methyl-9-[[(3R,4S)-4-fluoropyrrolidin-3-yl]amino]-1,3,4,6,11,11a-hexahydropyrazino[1,2-b]isoquinolin-2-yl]quinoline-8-carbonitrile]",26.1
6,"CO[C@H]1CNC[C@H]1Nc1ccc2c(c1)C[C@H]1CN(c3ccc(C#N)c4ncccc34)C[C@@H](C)N1C2 [Example 7, 5-[(4R,11aS)-9-[[(3R,4S)-4-methoxypyrrolidin-3-yl]amino]-4-methyl-1,3,4,6,11,11a-hexahydropyrazino[1,2-b]isoquinolin-2-yl]quinoline-8-carbonitrile]",13.5
7,"C[C@@H]1CN(c2ccc(C#N)c3ncccc23)C[C@@H]2Cc3cc(N4C[C@@H](F)[C@@H](N)C4)ccc3CN21 [Example 8, 5-[(4R,11aS)-9-[(3S,4R)-3-amino-4-fluoro-pyrrolidin-1-yl]-4-methyl-1,3,4,6,11,11a-hexahydropyrazino[1,2-b]isoquinolin-2-yl]quinoline-8-carbonitrile]",21.5
8,"CO[C@H]1CN(c2ccc3c(c2)C[C@H]2CN(c4ccc(C#N)c5ncccc45)C[C@@H](C)N2C3)C[C@H]1N [Example 9, 5-[(4R,11aS)-9-[(3R,4S)-3-amino-4-methoxy-pyrrolidin-1-yl]-4-methyl-1,3,4,6,11,11a-hexahydropyrazino[1,2-b]isoquinolin-2-yl]quinoline-8-carbonitrile]",2.3
9,"C[C@@H]1CN(c2ccc(C#N)c3ncccc23)C[C@@H]2Cc3cc(OCCN(C)C)ccc3CN21 [Example 11, 5-[(4R,11aS)-9-[2-(dimethylamino)ethoxy]-4-methyl-1,3,4,6,11,11a-hexahydropyrazino[1,2-b]isoquinolin-2-yl]quinoline-8-carbonitrile]",11.1
10,"C[C@@H]1CN(c2ccc(C#N)c3ncccc23)C[C@@H]2Cc3cc(OC[C@@H]4CCN4)ccc3CN21 [Example 12, 5-[(4R,11aS)-9-[[(2S)-azetidin-2-yl]methoxy]-4-methyl-1,3,4,6,11,11a-hexahydropyrazino[1,2-b]isoquinolin-2-yl]quinoline-8-carbonitrile]",22.9
